Experimental data published in BigSolDB 2.1.

Nc1nc(N)nc(-c2ccncc2)n1
solubility (mole fraction) (in THF, 288.15 K): 0.00308
solubility (mole fraction) (in THF, 293.15 K): 0.00334
solubility (mole fraction) (in THF, 298.15 K): 0.00362
solubility (mole fraction) (in THF, 303.15 K): 0.0039
solubility (mole fraction) (in THF, 308.15 K): 0.00407
solubility (mole fraction) (in THF, 313.15 K): 0.00433
solubility (mole fraction) (in THF, 318.15 K): 0.00455
solubility (mole fraction) (in ethanol, 288.15 K): 0.000734
solubility (mole fraction) (in ethanol, 293.15 K): 0.000813
solubility (mole fraction) (in ethanol, 298.15 K): 0.000925
solubility (mole fraction) (in ethanol, 303.15 K): 0.0011
solubility (mole fraction) (in ethanol, 308.15 K): 0.00122
solubility (mole fraction) (in ethanol, 313.15 K): 0.00137
solubility (mole fraction) (in ethanol, 318.15 K): 0.00159
solubility (mole fraction) (in isopropanol, 288.15 K): 0.000426
solubility (mole fraction) (in isopropanol, 293.15 K): 0.000506
solubility (mole fraction) (in isopropanol, 298.15 K): 0.000641
solubility (mole fraction) (in isopropanol, 303.15 K): 0.000787
solubility (mole fraction) (in isopropanol, 308.15 K): 0.000925
solubility (mole fraction) (in isopropanol, 313.15 K): 0.00116
solubility (mole fraction) (in isopropanol, 318.15 K): 0.00142
solubility (mole fraction) (in methanol, 288.15 K): 0.00138
solubility (mole fraction) (in methanol, 293.15 K): 0.00149
solubility (mole fraction) (in methanol, 298.15 K): 0.0017
solubility (mole fraction) (in methanol, 303.15 K): 0.00198
solubility (mole fraction) (in methanol, 308.15 K): 0.00214
solubility (mole fraction) (in methanol, 313.15 K): 0.00237
solubility (mole fraction) (in methanol, 318.15 K): 0.00269
solubility (mole fraction) (in n-propanol, 288.15 K): 0.000641
solubility (mole fraction) (in n-propanol, 293.15 K): 0.00072
solubility (mole fraction) (in n-propanol, 298.15 K): 0.00083
solubility (mole fraction) (in n-propanol, 303.15 K): 0.000942
solubility (mole fraction) (in n-propanol, 308.15 K): 0.00111
solubility (mole fraction) (in n-propanol, 313.15 K): 0.00128
solubility (mole fraction) (in n-propanol, 318.15 K): 0.00153
